Source: patent publication EP0486809A2, “Use of suramin against TNF-related diseases” (priority 1990, dated 1992)

Columns and labels:
[1] = target: T1, human TNFa (Homo sapiens, UniProt P01375); experiment: Inhibition by suramin of the cytotoxic activity of TNFa on actinomycin D-treated LM cells (MTT); type: cell-based; conditions: mouse LM cells treated with actinomycin D, measured the day after; Figure 5
Method: In the experiment depicted in Figure 5 different concentrations of human TNFa (Esquire) were incubated, in the absence or presence of different doses of suramin, with mouse LM cells treated with actinomycin D. Treatment with actinomycin D is known to render LM cells more sensitive to the cytotoxic activity of TNFa (Ruff, M.R. and Gifford, G.E., J. lmmunol. 125: 1671 (1980)). The cytotoxic activity of human TNFa was measured the day after.
Inhibition by suramin of the cytotoxic activity of TNF a on actinomycin D - treated LM cells.
The experimental design is similar to that for the assay on untreated LM cells.
The differences are as follows. • 1) 100 µl of a cell-suspension containing 3 x 10^5 cells/ml are added to each well of microtiter plates. • 2) Before setting up the TNFa-cytotoxicity assay, the cells are pretreated for 4 hours at 37 °C with complete MEM (100 µl/well) containing 2 µg/ml actinomycin D (Fluka). • 3) The cytotoxic activity of human TNF a is measured after an incubation period of 24 hours at 37 ° C.

[2] = target: T1, human TNFa; experiment: Inhibition by suramin of the binding of iodinated human TNFa to LM cells; set-up: purchased New England Nuclear (NEN), Wilmington, DE; conditions: binding of 3 x 10^-10M human TNFa to mouse LM cells; Figure 2
Method: The mixtures were then added to mouse LM cells. The residual binding of TNFa was measured and compared to the binding to LM cells in the absence or presence of a 100-fold higher dose of "cold" unlabeled human TNFa. […] For the binding assay, 24-well plates (Costar, Vis- mara Associate, Trezzano sul Naviglio, Italy) are used, that have been seeded the day before with mouse LM cells (Rubin, B.Y. et al. J. Exp. Med. 162: 1099 (1985)), 200.000 cells/well. The medium is discarded and replaced with 100 µl BM supplemented with 0.04% Na N3, 50 µl iodinated human TNF a and 50 µl BM or 50 µl cold TNF a or 50 µl of each suramin dilution. After 4 hours at 4°C cells are washed 4 x with BM, solubilized with 2% SDS and cell-associated radioactivity is determined. Data are processed as described before.

[3] = target: T1, human TNFa; experiment: Inhibition by suramin of the cytotoxic activity of TNFa on untreated mouse LM cells (MTT); type: cell-based; conditions: measured after 2 days, Figure 6
Method: The experiments depicted in Figure 6 were similar to the experiments of Figure 5, except that actinomycin D was omitted from the incubation mixture. In this case the cytotoxic activity of human TNFa was measured after 2 days. […] The degree of inhibition was dependent on the activity of human TNFa employed, i.e. doses of human TNFa exerting high cytotoxic activity were less inhibitable than those exerting lower cytotoxic activity.
3) Inhibition by suramin of the cytotoxic activity of TNF a on untreated mouse LM cells.
On day O logarithmically growing mouse LM cells (Rubin, B.Y. et al. J. Exp. Med. 162 : 1099 (1985)) are trypsinized, centrifuged and resuspended at a final concentration of 5 x 10^4 cells/ml of Eagle's minimun essential medium supplemented with 5% FCS and 1% glutamine (complete MEM). […]
The plates are further incubated for 4 hours at 37 °C. Then, supernatants are discarded, 200 µl of dimethylsulfoxide (DMSO, Farmitalia Carlo Erba) are added to each well and the extent of color development is read on a plate ELISA reader at 570 nm. OD values obtained for each TNF a concentration and each TNFa-suramin mixture are expressed as percent (%) of those obtained for the controll wells containing only complete MEM and complete MEM plus each suramin dilution, respectively.

[4] = target: T1, human TNFa; experiment: Inhibition by suramin of the binding of iodinated human TNFa to K562 cells; set-up: purchased New England Nuclear (NEN), Wilmington, DE; conditions: for IC50: Figure 1, read-out: Inhibitory concentrations 50 (IC50)
Method: In the experiment depicted in Figure 1 suramin was mixed, at the indicated doses, with 2.5 x 10^-11M, 10^-10M, or 4 x 10^-10M iodinated human TNFa - (New England Nuclear, NEN, Wilmington, DE). The mixtures were then added immediately to K562 cells. The residual binding of TNF a was measured and compared to the binding to K562 cells in the absence or presence of a 100-fold higher dose of "cold" unlabeled human TNFa (Esquire Chemie AG, Zuerich, Switzerland). […] Higher doses of suramin are required to inhibit the binding of higher doses of iodinated TNFa. […]
1) Inhibition by suramin of the binding of iodinated human TNF a to K562 cells.
lodinated human TNFa (NEN, specific activity = 30 - 70 µCi/µg protein) is diluted so to have concentrations of 1.6 x 10-^9 M, 4 x 10^-10M and 10^-10M in RPMI 1640 medium (Flow, Opera, Italy) supplemented with 2% foetal calf serum (FCS, PBI, Milan, Italy) and 14 mM Hepes (Flow). This medium will hereon be referred to as binding medium (BM). "Cold" unlabeled human TNF a (Esquire) is diluted in BM so to have concentrations of 1.6 x 10^-7M, 4 x 10-^8 M and 10^-8M. Suramin (Bayer, Leverkusen, FRG) is dissolved in BM so to have a concentration of 4 mM. Starting from this solution a series of dilutions are set up in BM.
K562 cells (human chronic myelogenous leukemia, ATCC CCL243) are adjusted to a concentration of 2 x 10^6/ml in BM. 100 µl of the cell suspension are then incubated with 50 µl of each iodinated TNFa concentration and with 50 µl BM or 50 µl of a 100 fold higher concentration of "cold" TNF a or 50 µl of each suramin dilution. The mixtures are incubated for 4 hours at […]. Thereafter the cells are centrifuged through a phthalate-dibutyl phthalate oil mixture (1:1,5 vol/vol, Fluka AG, Buchs, Switzerland). Cell-associated radioactivity is determined in a gamma-counter. Data thus obtained are processed by means of an equilibrium binding data analysis program (EBDA, Elsevir Science Publishers, Amsterdam, Netherlands). […]

T1 sequence (P01375 77-233 limits assumed): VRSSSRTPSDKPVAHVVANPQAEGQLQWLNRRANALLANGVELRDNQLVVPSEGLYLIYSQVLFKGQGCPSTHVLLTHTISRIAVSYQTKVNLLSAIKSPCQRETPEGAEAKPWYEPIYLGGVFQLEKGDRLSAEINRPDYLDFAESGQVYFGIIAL

SMILES: Cc1ccc(C(=O)Nc2ccc(S(=O)(=O)O)c3cc(S(=O)(=O)O)cc(S(=O)(=O)O)c23)cc1NC(=O)c1cccc(NC(=O)Nc2cccc(C(=O)Nc3cc(C(=O)Nc4ccc(S(=O)(=O)O)c5cc(S(=O)(=O)O)cc(S(=O)(=O)O)c45)ccc3C)c2)c1 [suramin, 8,8' - (carbonylbis(imino-3,1-phenylenecarbonylimino (4-methyl-3,1-phenylene)carbonylimino)) bis-1,3 ,5-naphthalenetrisulfonic acid]
- inhibition of the cytotoxic activity of human TNFa [1]: inhibited, in a dose- dependent manner
- IC50 [2]: 175 µM
- inhibition of the cytotoxic activity of human TNFa [3]: inhibited, in a dose- dependent manner
- IC50 ([4]; binding of 2.5 x 10-"M human TNFa to human K562 cells): 78 µM
- IC50 ([4]; binding of 4 x 10-'°M human TNFa to human K562 cells): 180 µM
- IC50 ([4]; binding of 10^-10M human TNFa to human K562 cells): 126 µM
- inhibition of the binding of TNFa to K562 ([4]; sequential addition of suramin and 10^-10M TNFa, K562 cells washed in between, Figure 4): no inhibition
